The values below come from paper PMC5113665, “HF‐Free Boc Synthesis of Peptide Thioesters for Ligation and Cyclization” (Angewandte Chemie (International Ed. in English), 2016).

This assay concerns the target T1, KRAS-GTPγS (Homo sapiens, UniProt P01116).
T1 construct: proteins (amino acids 1-185) were; GST (N, cleaved yes); made in house; host or cells: Escherichia coli BL21
Description: Microscale thermophoresis binding to labeled KRAS-GTPγS. The settings on record: 25 °C, NT-647 labelled protein, GTPγS-loaded, average of three measurements, read-out: affinity for labeled KRAS-GTPγS. From the text:
Cyclization in acetonitrile in the presence of an aqueous imidazole solution gave good results (Figure S23, SI). […] The binding was characterized by microscale thermophoresis studies (Figure 4 D).
VI. Biological analysis of Cyclorasin 9A5
Protein Expression and Purification material and methods:
Human wt-K-Ras and oncogenic K-Ras_G12V proteins (amino acids 1-185) were cloned in pGEX-6P-1 vector that encodes a glutathione S-transferase (GST) tag at the N-terminal of the expressed protein. The constructs were transformed in Escherichia coli BL21 cells – the cells were grown in Luria Broth (LB) media in the presence of 0.1 mg mL-1 ampicillin at 37 °C to an OD 700 then induced by the addition of 0.1 mM IPTG. The bacterial culture was then incubated overnight at 18 °C and harvested the second day by centrifugation. […]
Microscale thermophoresis (MST) measurements were performed using a NanoTemper Monolith™ NT.115 instrument (NanoTemper Technologies GmbH, München, Germany). […] Labeling levels (generally in the range 0.3-0.4 dye molecules per protein) were determined using calculated extinction coefficients and e647 = 250,000 M-1cm-1 for the dye concentration. […]
GTPγS (B) and K-Ras-G12V_ GDP (D). The Kd values for each interaction were calculated as an average of three measurements. […]
(In MST a laser heats a spot of the sample, and binding alters the fluorescence response.)

Non-standard residues stand in square brackets, D forms with d. Residues, ends and D or L forms follow the SMILES beside them. Phe(4-F) = N[C@@H](Cc1ccc(F)cc1)C(=O)O; d2Nal = N[C@H](Cc1ccc2ccccc2c1)C(=O)O; dNle = CCCC[C@@H](N)C(=O)O

T1 sequence (P01116 1-185 isoform P01116-2): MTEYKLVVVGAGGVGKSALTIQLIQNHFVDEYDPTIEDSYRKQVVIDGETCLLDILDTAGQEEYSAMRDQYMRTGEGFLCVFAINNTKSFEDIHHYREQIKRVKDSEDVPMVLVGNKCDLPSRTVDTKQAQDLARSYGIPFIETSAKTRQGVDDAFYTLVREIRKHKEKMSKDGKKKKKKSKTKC

On to `CCCC[C@H]1NC(=O)[C@H](Cc2ccc(F)cc2)NC(=O)[C@H](CCCNC(=N)N)NC(=O)[C@@H](Cc2ccc3ccccc3c2)NC(=O)[C@H](CCCNC(=N)N)NC(=O)[C@H](CCCNC(=N)N)NC(=O)[C@H](CCCNC(=N)N)NC(=O)[C@@H](C)NC(=O)[C@H]([C@@H](C)O)NC(=O)[C@H](Cc2c[nH]c3ccccc23)NC(=O)[C@H](CCC(N)=O)NC1=O` [cyclorasin 9A5] (cyclo(WT[dA]RRR[d2Nal]R[Phe(4-F)][dNle]Q)), for which the Kd was 600 nM.
